In patent publication US8399663B2, “Salt of 1,3,5-triazine-2,4,6-triamine derivative” (Astellas Pharma Inc., priority 2009, dated 2013):

Key:
[1] = test system: methamphetamine-induced hyperlocomotion; assay: Methamphetamine-induced hyperlocomotion model (animal model of Schizophrenia); format: in vivo, male ddY mouse; conditions: oral administration to male ddY mice
Procedure: Methamphetamine is a psychostimulant, and is known to cause symptoms that are similar to Schizophrenia by increasing the transmission in the dopaminergic neurons. The abnormal behavior produced when methamphetamine is administered to an animal is generally used as a screening method for a therapeutic drug for Schizophrenia (Oka et al., 1993, J. Pharmacol. Exp. Ther., 264:158-165, herein incorporated by reference). That is, a male ddY mouse was placed in an activity monitoring apparatus, and after 30 min, methamphetamine was administered. Immediately after administering methamphetamine, the mouse was returned to the monitoring apparatus, and the activity for 1 hour from immediately after the return was measured. For the measurement of the activity, a Supermex sensor manufactured by Muromachi Kikai Co., Ltd. was used. A solvent, or a diluted solution obtained by diluting each of the test compounds with a solvent at multiple concentrations was orally administered to mice in a group. As the solvent, a 0.5% aqueous methyl cellulose solution was used. The statistical analysis was carried out between the group administered with the solvent and the group administered with the drug, using a Dunnett's test.

[2] = pKa value of the compound; format: physicochemical

Structure (SMILES): Fc1ccc(Nc2nc(NCc3ncccn3)nc(Nc3ccccc3)n2)cc1 [compound A, N-(4-fluorophenyl)-N′-phenyl-N″-(pyrimidin-2-ylmethyl)-1,3,5-triazine-2,4,6-triamine]
- methamphetamine-induced hyperlocomotion inhibitory action [1]: inhibited the methamphetamine-induced hyperlocomotion
- pKa [2]: 3.9

Structure (SMILES): Fc1ccc(Nc2nc(NCc3ncccn3)nc(Nc3ccc(F)cc3)n2)cc1 [compound B, N,N′-bis(4-fluorophenyl)-N″-(pyrimidin-2-ylmethyl)-1,3,5-triazine-2,4,6-triamine]
- methamphetamine-induced hyperlocomotion inhibitory action [1]: inhibited the methamphetamine-induced hyperlocomotion
